Measurements taken from the supplement of paper PMC10307832.

Legend:
Test in all cases: relative viability (nuclei count vs DMSO), 5 days (fraction); higher = more cells survive
[1] = system: SW 1573
Method in brief: (§1)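 Dosing by pin tool came one day after lung cancer cell lines were seeded in 1536-well plates, using either one drug or a fixed anchor-drug dose plus five library-drug doses (not always all listed) in √10 steps. After 5 days, nuclei were counted on 4× images. Relative viability is treated-well nuclei count divided by vehicle-well nuclei count, and values are medians of duplicate plates.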

[2] = system: RERF-LC-KJ
Method in brief: as §1

[3] = system: SK-MES-1
Method in brief: as §1

[4] = system: EMC-BAC-2
Method in brief: as §1

[5] = system: NCI-H2347
Method in brief: as §1

[6] = system: HOP-62
Method in brief: as §1

[7] = system: NCI-H3122
Method in brief: as §1

[8] = system: NCI-H2009
Method in brief: as §1

[9] = system: NCI-H838
Method in brief: as §1

[10] = system: NCI-H2228
Method in brief: as §1

[11] = system: SW 900
Method in brief: as §1

[12] = system: LK-2
Method in brief: as §1

[13] = system: EKVX
Method in brief: as §1

[14] = system: 201T
Method in brief: as §1

[15] = system: LC-2-ad
Method in brief: as §1

[16] = system: ChaGo-K-1
Method in brief: as §1

[17] = system: HCC-78
Method in brief: as §1

[18] = system: UMC-11
Method in brief: as §1

[19] = system: NCI-H1355
Method in brief: as §1

[20] = system: PC-14
Method in brief: as §1

[21] = system: HCC-44
Method in brief: as §1

Structure (SMILES): COCC1(CO)C(=O)C2CCN1CC2 (stereo not drawn) [PRIMA-1MET] + Nc1nc2[nH]cc(CCc3ccc(C(=O)N[C@@H](CCC(=O)O)C(=O)O)cc3)c2c(=O)[nH]1 [Pemetrexed] (partner 0.2 µM)
- relative viability ([1]; first compound 0.2 µM): 0.882
- relative viability ([1]; first compound 0.6325 µM): 0.89
- relative viability ([1]; first compound 2 µM): 0.752
- relative viability ([1]; first compound 6.325 µM): 0.0377
- relative viability ([1]; first compound 20 µM): 0.0278
- relative viability ([2]; first compound 0.2 µM): 0.49
- relative viability ([2]; first compound 0.6325 µM): 0.484
- relative viability ([2]; first compound 2 µM): 0.472
- relative viability ([2]; first compound 6.325 µM): 0.495
- relative viability ([2]; first compound 20 µM): 0.472
- relative viability ([3]; first compound 0.2 µM): 1.08
- relative viability ([3]; first compound 0.6325 µM): 0.896
- relative viability ([3]; first compound 2 µM): 0.901
- relative viability ([3]; first compound 6.325 µM): 0.92
- relative viability ([3]; first compound 20 µM): 0.929
- relative viability ([4]; first compound 0.2 µM): 0.549
- relative viability ([4]; first compound 0.6325 µM): 0.44
- relative viability ([4]; first compound 2 µM): 0.422
- relative viability ([4]; first compound 6.325 µM): 0.459
- relative viability ([4]; first compound 20 µM): 0.473
- relative viability ([5]; first compound 0.2 µM): 0.441
- relative viability ([5]; first compound 0.6325 µM): 0.455
- relative viability ([5]; first compound 2 µM): 0.335
- relative viability ([5]; first compound 6.325 µM): 0.407
- relative viability ([5]; first compound 20 µM): 0.398
- relative viability ([6]; first compound 0.2 µM): 0.407
- relative viability ([6]; first compound 0.6325 µM): 0.377
- relative viability ([6]; first compound 2 µM): 0.36
- relative viability ([6]; first compound 6.325 µM): 0.377
- relative viability ([6]; first compound 20 µM): 0.122
- relative viability ([7]; first compound 0.2 µM): 0.18
- relative viability ([7]; first compound 0.6325 µM): 0.199
- relative viability ([7]; first compound 2 µM): 0.206
- relative viability ([7]; first compound 6.325 µM): 0.192
- relative viability ([7]; first compound 20 µM): 0.206
- relative viability ([8]; first compound 0.2 µM): 0.973
- relative viability ([8]; first compound 0.6325 µM): 1.03
- relative viability ([8]; first compound 2 µM): 1.03
- relative viability ([8]; first compound 6.325 µM): 0.96
- relative viability ([8]; first compound 20 µM): 0.435
- relative viability ([9]; first compound 0.2 µM): 0.247
- relative viability ([9]; first compound 0.6325 µM): 0.249
- relative viability ([9]; first compound 2 µM): 0.261
- relative viability ([9]; first compound 6.325 µM): 0.264
- relative viability ([9]; first compound 20 µM): 0.174
- relative viability ([10]; first compound 0.2 µM): 0.351
- relative viability ([10]; first compound 0.6325 µM): 0.332
- relative viability ([10]; first compound 2 µM): 0.3
- relative viability ([10]; first compound 6.325 µM): 0.305
- relative viability ([10]; first compound 20 µM): 0.0521
- relative viability ([11]; first compound 0.2 µM): 0.522
- relative viability ([11]; first compound 0.6325 µM): 0.282
- relative viability ([11]; first compound 6.325 µM): 0.455
- relative viability ([11]; first compound 20 µM): 0.0805
- relative viability ([12]; first compound 0.2 µM): 0.271
- relative viability ([12]; first compound 0.6325 µM): 0.0831
- relative viability ([12]; first compound 2 µM): 0.221
- relative viability ([12]; first compound 6.325 µM): 0.125
- relative viability ([12]; first compound 20 µM): 0.0594
- relative viability ([13]; first compound 0.2 µM): 0.448
- relative viability ([13]; first compound 2 µM): 0.385
- relative viability ([13]; first compound 6.325 µM): 0.447
- relative viability ([13]; first compound 20 µM): 0.385
- relative viability ([14]; first compound 0.2 µM): 0.302
- relative viability ([14]; first compound 0.6325 µM): 0.339
- relative viability ([14]; first compound 2 µM): 0.332
- relative viability ([14]; first compound 6.325 µM): 0.346
- relative viability ([14]; first compound 20 µM): 0.328
- relative viability ([15]; first compound 0.2 µM): 0.26
- relative viability ([15]; first compound 0.6325 µM): 0.301
- relative viability ([15]; first compound 2 µM): 0.268
- relative viability ([15]; first compound 6.325 µM): 0.273
- relative viability ([15]; first compound 20 µM): 0.259
- relative viability ([16]; first compound 0.2 µM): 0.249
- relative viability ([16]; first compound 0.6325 µM): 0.261
- relative viability ([16]; first compound 2 µM): 0.26
- relative viability ([16]; first compound 6.325 µM): 0.247
- relative viability ([16]; first compound 20 µM): 0.263
- relative viability ([17]; first compound 0.2 µM): 0.916
- relative viability ([17]; first compound 0.6325 µM): 0.886
- relative viability ([17]; first compound 2 µM): 0.914
- relative viability ([17]; first compound 6.325 µM): 0.832
- relative viability ([17]; first compound 20 µM): 0.864
- relative viability ([18]; first compound 0.2 µM): 0.866
- relative viability ([18]; first compound 0.6325 µM): 0.693
- relative viability ([18]; first compound 2 µM): 0.836
- relative viability ([18]; first compound 6.325 µM): 0.768
- relative viability ([18]; first compound 20 µM): 0.801
- relative viability ([19]; first compound 0.2 µM): 1.02
- relative viability ([19]; first compound 0.6325 µM): 0.985
- relative viability ([19]; first compound 2 µM): 1
- relative viability ([19]; first compound 6.325 µM): 1.01
- relative viability ([19]; first compound 20 µM): 1.04
- relative viability ([20]; first compound 0.2 µM): 0.124
- relative viability ([20]; first compound 0.6325 µM): 0.148
- relative viability ([20]; first compound 2 µM): 0.114
- relative viability ([20]; first compound 6.325 µM): 0.148
- relative viability ([20]; first compound 20 µM): 0.0292
- relative viability ([21]; first compound 0.2 µM): 0.748
- relative viability ([21]; first compound 0.6325 µM): 0.641
- relative viability ([21]; first compound 2 µM): 0.681
- relative viability ([21]; first compound 6.325 µM): 0.676
- relative viability ([21]; first compound 20 µM): 0.607
